melting point [°C]	Compound
163 to 165	COCCn1nc2c(N)nc3c(c2c1CC(C)(C)O)CCCC3
242 to 243	CCOC(=O)c1nnc2ccc(NC(=O)NC(Cc3ccccc3)C(=O)OC)cc2c1O (configuration not stated)
194 to 195	CC(C(=O)O)c1ccc2oc3ncccc3c(=O)c2c1 (configuration not stated)
190	C[C@H]1Cn2c(=O)[nH]c3cccc(c32)CN1
163 to 165	CCc1nc2c(N)nc3cccnc3c2n1CCCCCC(=O)N1CCOCC1
195 to 198	COc1ccc(C(=O)Nc2c(Cl)cncc2Cl)cc1OC1COCC1OCSC (configuration not stated)
90 to 91	C[C@H](C#Cc1ccc(COCc2ccc(F)cc2)s1)N(O)C(N)=O
231 to 233	COc1ccc(N=Nc2ccc(O)c(C(N)=O)c2)cc1
222 to 223	C#CCNc1cc(C(=O)O)cc(S(N)(=O)=O)c1Oc1ccccc1
192	C=C(C)C(=O)NC1=CC(C(=O)O)C(O)(C(C)=O)C=C1 (configuration not stated)
65 to 66	CCSc1ccc2cccc(CCNC(C)=O)c2c1
152 to 153	COc1ccccc1CSc1c(O)cc(-c2ccccc2)oc1=O
42 to 45	O=C(c1ccccc1)C(O)CCl (configuration not stated)
140 to 141	Nc1ccc(CCC(=O)N2CCCCC2)cc1[N+](=O)[O-]
172 to 173	COC(=O)[C@H]1C[C@@H](NC(=O)OC(C)(C)C)c2c(Cl)cc(Cl)cc2N1 (relative stereo)
193 to 194	CC(C)(O)CCNC(=O)c1n[nH]cc1NC(=O)c1ccccn1
121 to 123	NC(=O)C1=CN(CCC(=O)NCCc2ccccc2)C=CC1
125 to 127	Oc1cc(OCCCCCCCCCCOc2ccc(C(=S)c3ccc(-c4ccccc4)cc3)c(O)c2)ccc1C(=S)c1ccc(-c2ccccc2)cc1
105 to 115	CN(C)c1cccc2c(S(=O)(=O)NCC(=O)N3CCCC3C(=O)NC(C=O)CCCN(C(=N)N)C(=O)OCc3ccccc3)cccc12 (configuration not stated)
275	O=C(c1ccccc1)N1CCc2[nH]c3c(cnc4cc(Cl)ccc43)c2C1
220 to 221	Cc1ccc2sc(-c3ccccn3)nc(=O)c2c1
86 to 88	COc1ccc2c(c1)-c1noc(N3CCNCC3)c1CC2
266	Cc1nc(NC(=O)c2cnn3c(C(F)(F)F)cc(-c4ccc(C(F)(F)F)cc4)nc23)sc1S(=O)(=O)N(C)CCO
180 to 182	CCCCOc1ccc2nc(C(=O)NCC(=O)O)c(O)cc2c1

melting point [°C]	Compound
132 to 134	CC(C)NCC(O)COc1ccc2ncsc2c1 (configuration not stated)
36	Cc1ccc(-c2nc(CCCCCCOC(C)(C)C#N)c(C)o2)cc1
180 to 182	CCOC(=O)C(=O)NS(=O)(=O)Cc1nc(-c2ccc(Cl)c(Cl)c2)cs1
128 to 131	Cc1[nH]cnc1CSCCNC(=N)NCCCc1c[nH]cn1
224 to 226	COc1cc(Nc2c(C#N)cnc3cc(-c4csc(CN5CCN(C)CC5)c4)sc23)c(Cl)cc1Cl
> 300	CCOC(=O)Nc1cc2nc(O)c(O)nc2cc1Cl
135 to 136	COC(=O)C1CCN2C(=O)C(=O)c3cccc1c32 (configuration not stated)
45 to 47	COCCCCCCCCCCCC(=O)O
195 to 196	COC(=O)c1ccc(-c2nn(Cc3ccccc3)c3ccc(N)cc23)o1
126 to 127	O=C(ON1C(=O)CCC1=O)c1ccco1
208 to 209	CCCC(=O)c1cc2c(=O)c(C(=O)O)cn(CC)c2cc1C
145 to 147	CCCC(C=NNC(C)=O)c1ccc(Cl)cc1Cl (configuration not stated)
37	CCCCc1ccc(-c2ccc(-c3ccc(CC)cc3)cc2F)s1
89 to 91	CCOC(=O)c1ccc(N=CN(C)c2ccc(C(=O)OCC)cc2)cc1
128 to 130	Cc1ccc2c(c1)C1(OCCCO1)C(=O)N2
108 to 109	N#Cc1cccnc1N1CCN(CC(=O)Nc2cccc(Cl)c2)CC1
222 to 225	CCCCCc1cc2c(nc(O)n2CC2CCN(S(=O)(=O)CC)CC2)c(N)n1
251 to 254	O=C1CCC2=C1C(c1ccc([N+](=O)[O-])s1)C1=C(CCS1)N2 (configuration not stated)
190 to 195	CCC1(C)CC2(NC(=O)N(C)C2=O)C(C)C(C)(CC)N1C (configuration not stated)
146 to 150	CNC(=O)C1=CC(C)(C)Oc2ccc(C(F)(F)F)cc21
80 to 84	Nc1ccc(F)c(CO)c1
154 to 155	CC(C)OCc1nc(C(C)(C)O)c(C(=O)OC(C)C)[nH]1
95 to 100	C[C@@H](C(=O)O)N(C(=O)[C@@H]1CS[C@H](c2ccccc2O)N1C(=O)CCSC(=O)c1ccccc1)c1ccccc1
74 to 78	c1nc(SCC2CCCCC2)n[nH]1

melting point [°C]	Compound
49 to 50	CCCOc1ccc(CCCCCCC(=O)O)cc1
131 to 132	O=C(CCCCl)c1ccc2c(c1)Cc1cc(C(=O)CCCCl)ccc1O2
99 to 101	CN(C(=O)Nc1nc(OCC(F)(F)F)cc(OCC(F)(F)F)n1)c1ccc(C(F)(F)F)s1
> 300	O=c1cc(-c2ccncc2)nc(-c2cccnc2)[nH]1
279	Nc1ccc(-c2noc(-c3cnn4c(C(F)F)cc(-c5ccc(Cl)c(Cl)c5)nc34)n2)cn1
152 to 154	CC1=NC(NC(=O)Nc2cc(C)ccn2)C(=O)N(CC(=O)N2CC3CCC(CC3)C2)c2c(C)cccc21 (configuration not stated)
282 to 283	CCc1cc(Cl)cc2[nH]c(C(=O)O)cc(=O)c12
194 to 195	Cc1nn(-c2ccc(F)cc2)cc1C(=O)O
307 to 312	Cc1c(Cc2ccccc2)c(=O)[nH]c2cc(O)cc(O)c12
204 to 205	CC(C)n1nc(-c2sc(C(=O)NCc3ccccn3)nc2-c2ccc(F)cc2)ccc1=O
128 to 130	CN(C(=O)c1cc(C(F)(F)F)cc(C(F)(F)F)c1)C(CC(=O)O)Cc1ccc2ccccc2c1 (configuration not stated)
78 to 80	Cn1c(=O)c2c(ncn2CCCCCCl)n(C)c1=O
77 to 79	CCOC(=O)C1=Cc2cc3ccccc3n2CC1
120	CN(C(=O)CN(C(=O)CNC(=O)Nc1cccc(CO)c1)c1ccccc1)c1ccccc1
190	CC(C)(C)OC(=O)CCP(Br)(c1ccccc1)(c1ccccc1)c1ccccc1
166 to 167	N#Cc1ccc2nccn2c1
165 to 166	CCCc1cc(Cl)c2oc(C(=O)OCC)c(C)c2c1O
129 to 131	COc1cc2c(-c3ccnc(Cl)c3)c(CO)c(CO)cc2cc1OC(C)C
185 to 187	COc1ccc(S(=O)(=O)Nc2ccccc2Nc2ccncc2)cc1
139 to 142	CCc1cccc2c(C=O)cc(Cl)c(O)c12
154 to 155	CCCOc1cc(-c2c(C(=O)OCC)c(Cn3cnnc3)nc3cc(OC)c(OC)cc23)ccc1OC
> 300	Cn1cnc2nc(-c3cc(C(C)(C)C)c(O)c(C(C)(C)C)c3)nn2c1=S
161 to 165	O=C(NC(Cc1c[nH]cn1)C(=O)NC(Cc1ccc(OCc2ccccc2)cc1)C(=O)NCCOCc1ccccc1)OCc1ccccc1 (configuration not stated)
129 to 134	CN1CCC(c2c[nH]c3ccc(NC(=O)c4ccc(C#N)cc4)nc23)CC1

melting point [°C]	Compound
127	Cc1ncccc1Cn1c(CO)nc(C(C)C)c1Sc1cc(Cl)cc(Cl)c1
138 to 140	Cc1nc([C@@H](Cc2c[nH]c3ccccc23)NC(=O)OC(C)(C)C)oc1C
138	O=C(NN=Cc1ccnc2ccccc12)C1CCC1
194	Cc1ccc(S(=O)(=O)NC(=O)OCCc2ccc(-n3c(-c4ccccc4)nc4c(C)nc(C)cc43)cc2)cc1
159 to 161	CCOc1nc2ccccc2nc1N(C)C(=O)N1CCN(c2cc(OC)cc(OC)c2)CC1
261 to 264	Cc1cc(C)c2ncc(NC(=O)c3cc(C)c(O)c(C)c3C)c(-c3ccccc3Cl)c2c1
205 to 212	S=c1nc(-c2cc(Cl)cc(Cl)c2)[nH]n1Cc1ccccc1
212 to 214	CC(=O)C1=C(Nc2ccc(C3=NNC(=O)CC3)cc2)CC(C)(C)CC1=O
165 to 166	O=Cc1c(OCCCCC(=O)O)ccc(C(=O)O)c1O
55 to 56	CN(N=[N+](C)[O-])c1ccccc1
184 to 186	CC(C)(C)OC(=O)NN=Cc1ccccc1
97 to 99	CCN(C)c1ccc2c(c1)CN(c1cccc(Br)c1COC(C)=O)C2=O
105 to 110	O=C(O)Cc1cc2c(s1)-c1ccccc1OC2C1=CCCC=C1 (configuration not stated)
234 to 237	CC1=Nc2c3ccccc3nc(=O)n2C1C (configuration not stated)
261 to 263	Oc1ccc(-c2ncc3ncc(-c4ccco4)cc3n2)cc1
168 to 169	CC(=O)c1ccccc1Nc1ccc(O)cc1
120 to 121	Clc1ccc(Cn2cc(CCN=c3sc4ccccc4s3)c3ccccc32)cc1
135	CCOC(=O)C(C(C)=O)C(CC(=O)c1ccccc1)c1ccc(OC)c(OC)c1 (configuration not stated)
92 to 94	N#Cc1ccnc(CO)c1
205	CCSc1c(CO)nc(C)n1Cc1ccc(-c2ccccc2C(=O)O)cc1
53.5 to 54.5	COc1cc(C(=O)CCCC2CCCCC2)c(OC)cc1C
116 to 120	COc1ccccc1NCCN1CCC(C(=O)c2ccc(F)cc2)CC1
77 to 78	CN1C(=O)O[C@@H](c2ccc(F)cc2)[C@H]1Cc1ccc(C(F)(F)F)cc1 (racemic)

Compound	melting point [°C]
CCOC(=O)C=C1CN=C(c2ccccc2F)c2cc(Cl)ccc2N1	109 to 111
CN(C)C(=N[N+](=O)[O-])N(C)Cc1ccc(Cl)nc1	99 to 101
CN(C)C1(c2cccc(F)c2)CCC2(OCCc3c2[nH]c2ccccc32)C(CNC(=O)C=Cc2cccc(-c3ccccc3)c2)C1 (configuration not stated)	134 to 140
CC12CC(N3CCC(O)CC3)C(O)CC1CCC1C2CCC2(C)C(O)C(N3CCC4(CC3)OCCO4)CC12 (configuration not stated)	199 to 201
CC1(C)SC(c2cccnc2)NC1C(=O)O (configuration not stated)	164 to 165
O=C(CCl)N1Cc2ccccc2P1(=O)c1ccccc1 (configuration not stated)	167 to 169
CCC(=O)Nc1cccc(-c2ccnc3c(C(=O)c4cccs4)cnn23)c1	208 to 210

— a melting point compilation (Tetko et al.; mined from patent text by program, amines drawn as free bases though some values may be those of a salt)
